Measurements published in patent US7642280B2, “Inhibitors of acyl glucosaminyl inositol amidase and methods of use” (The Regents of the University of California, priority 2001, dated 2010).
Like-named read-outs stand apart in the source and are kept apart here.

Experiments:
[1] = target: Mycobacterium smegmatis mycothiol-S-conjugate amidase (MCA) (Mycolicibacterium smegmatis, UniProt A0R2W9); experiment: Fluorescence-based HPLC IC50 assay, wild type M. smegmatis MCA with natural MSmB; format: biochemical
Sequence of Mycobacterium smegmatis mycothiol-S-conjugate amidase (MCA) (A0R2W9 whole entry): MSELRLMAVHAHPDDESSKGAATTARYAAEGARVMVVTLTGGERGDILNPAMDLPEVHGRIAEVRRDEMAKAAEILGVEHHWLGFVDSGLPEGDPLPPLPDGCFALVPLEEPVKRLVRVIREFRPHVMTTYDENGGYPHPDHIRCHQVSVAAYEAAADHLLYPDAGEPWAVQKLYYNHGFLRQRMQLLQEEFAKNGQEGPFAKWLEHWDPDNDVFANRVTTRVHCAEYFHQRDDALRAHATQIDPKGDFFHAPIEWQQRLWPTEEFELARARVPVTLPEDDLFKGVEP

M. tuberculosis MCA = M. tuberculosis MCA (Mycobacterium tuberculosis, UniProt P9WJN1); experiment: biochemical
Sequence of M. tuberculosis MCA (P9WJN1 whole entry): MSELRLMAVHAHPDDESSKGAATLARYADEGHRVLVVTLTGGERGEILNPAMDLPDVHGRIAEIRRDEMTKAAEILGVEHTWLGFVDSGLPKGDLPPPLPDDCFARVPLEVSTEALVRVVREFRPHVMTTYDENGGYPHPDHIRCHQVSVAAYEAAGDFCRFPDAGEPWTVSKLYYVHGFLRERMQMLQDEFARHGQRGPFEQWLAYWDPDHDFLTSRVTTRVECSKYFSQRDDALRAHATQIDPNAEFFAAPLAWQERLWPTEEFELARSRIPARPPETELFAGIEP

[2] = target: mycothiol S-conjugate amidase (MCA) (Mycolicibacterium smegmatis, UniProt A0R2W9); experiment: Fluorescence-detected HPLC assay of MCA cleavage of MSmB (50 μM MSmB as substrate), Examples 1 and 3; format: biochemical
Sequence of mycothiol S-conjugate amidase (MCA) (A0R2W9 whole entry): as the sequence (A0R2W9 whole entry) above

[3] = wild type M. smegmatis MCA approx. 20 nM, 30 μM natural MSmB, 20 min, 31° C., read-out: IC50 M. smeg
[4] = recombinant M. tuberculosis MCA approx. 20 nM, 30 μM synthetic MSmB, 20 min, 31° C., read-out: IC50 M. tb
[5] = 50 μM MSmB as substrate, read-out: concentration that inhibited mycothiol S-conjugate amidase by 50%

Row | Compound | IC50 [1, 3] [µM] | IC50 (M. tuberculosis MCA; [4]) [µM] | further results
1 | psammaplysin A [Compound 3] | 30 | 30 | –
2 | Oceanapiside [Compound 7] | 0.5 | 10 | IC50 ([2]; 50 μM MSmB as substrate, read-out: IC50 amidase inhibition (Example 3, FIG. 6)): 5 µM
3 | CS[C@]1(CO)C(=O)N2[C@H]3C(=CC=C[C@@H]3O)C[C@@]2(SC)C(=O)N1C [Compound 13, S,S-dimethyl gliotoxin] | 280 | – | –
4 | CN1C(=O)[C@]23CC4=CC=C[C@H](O)[C@H]4N2C(=O)[C@@]1(CO)SS3 [Compound 12, Gliotoxin] | 30 | – | IC50 (M. tuberculosis MCA): 30 µM
5 | oceanapiside aglycon [Compound 8] | – | 20 | –
6 | COc1cc(O)c2c(c1)C(=O)c1cc(C)cc(O)c1C2=O [Compound 14, Physcion] | 50 | – | –
7 | Suvanine [Compound 10] | 60 | – | –
8 | COC1=C(Br)[C@@H](O)[C@]2(C=C1Br)CC(C(=O)NCCc1[nH]c(N)nc1-c1cc(O)c3ncc(O)c(O)c3c1O)=NO2 [Compound 1] | – | 3 | IC50 [2]: 2 µM; IC50 [1]: 2 µM
9 | COC1=C(Br)C[C@]2(OC=C1Br)ON=C(C(=O)NCCCOc1c(Br)cc(C(O)CN)cc1Br)[C@@H]2O (stereo partly shown) [Compound 4, psammaplysin B] | 20 | 30 | IC50 [2, 5]: 3 µM
10 | COC1=C(Br)[C@@H](O)[C@]2(C=C1Br)CC(C(=O)NCCc1cnc(N)[nH]1)=NO2 [Compound 2, Pseudoceratine] | 100 | 100 | IC50 [2, 5]: 100 µM
11 | O=c1c(O)c[nH]c2c(O)ccc(O)c12 [uranidine, reference compound] | – | – | inhibitory activity against MCA (in words) ([2]; 50 μM MSmB as substrate, absence of cleavage product AcCys-bimane): ineffective
12 | halisulfate 1 [Compound 11] | 40 | – | –
